Measured values: US8383816B2, “Aryl-quinolyl compounds and their use” (Cancer Research Technology Limited, priority 2008, dated 2013)
“And” between values parts separate entries of the source, which are not always exact repeats. Equal entries are not always repeated.

Legend:
B-RAF = B-RAF (Homo sapiens, UniProt P15056, V600E); experiment: DELFIA Kinase Assay; type: biochemical; conditions: 100 μM ATP
Method: Biological Methods—DELFIA Kinase Assay
Compounds were assessed by a kinase assay performed according to the following protocol.
DELFIA Kinase Buffer (DKB):
DKB1 (DKB with B-RAF and MEK Protein):
Combine 4950 μL of DKB and 50 μL of 2.5 mg/ml GST-MEK stock (to give […] of MEK per 40 μL). Then add 22.5 μL of B-RAF to give ˜0.2 μL of B-RAF per 40 μL.
DKB2 (DKB with MEK Protein):
Combine 4950 μL of DKB and 50 μL of 2.5 mg/ml GST-MEK stock (to give 1 mg of MEK per 40 μL). Use 500 μL of this for the blow out (BO) and the empty vector (EV) control.
100 mM stock, dilute to 500 μM to give 100 μM final concentration in assay.
Inhibitors (Test Compounds):
Phospho-MEK½ CST #9121S diluted 1:1000 in DELFIA assay buffer (AB). Preincubate antibody in the AB for 30 minutes at room temperature prior to use.
Anti-rabbit-Eur labelled secondary Perkin Elmer #AD0105 diluted 1:1000 in DELFIA assay buffer (AB). Preincubate antibody in the AB for 30 minutes at room temperature prior to use. (Primary and secondary antibodies were incubated together.)
1. Preblock wells with 5% milk in TBS for 1 hour.
2. Wash wells with 3× with 200 μL TBS.
3. Plate out 40 μL of DKB1 for all inhibitors (test compounds), DMSO control, and optionally other control compounds.
4. Plate out 40 μL of DKB2 for BO and EV wells.
5. Add inhibitors (test compounds) at 0.5 μL per well according to desired plate layout.
6. Add 0.5 μL DMSO to vehicle control wells.
7. Add 2 μL of B-RAF to BO and EV wells.
8. Pre-incubate with inhibitors (test compounds) for 10 minutes at room temperature with shaking.
9. Add 10 μL of 500 μM ATP stock, in DKB, to give 100 μM assay concentration.
10. Seal plates with TopSeal and incubate at room temperature with shaking for 45 minutes.
11. Wash plates 3× with 200 μL 0.1% Tween20/Water to terminate reaction.
12. Add 50 μL per well of antibody mix and incubate for 1 hour at room temperature with shaking.
13. Wash plates 3× with 200 μL 0.1% Tween20/Water.
14. Add 100 μL DELFIA enhancement solution per well, cover in foil, and incubate at room temperature for 30 minutes with shaking.
15. Read on Victor using Europium protocol.
(§1) Values for the blank (Empty Vector) are subtracted from all values. The DMSO controls are set as 100% activity and assay points (the response) are calculated as a percentage of the DMSO control. Data are plotted using Graphpad Prism software and a non-linear regression line is calculated using a variable slope sigmoidal dose-response equation (Y=Bottom+(Top−Bottom)/(1+10^((LogEC50−X)*HillSlope)) where X is the logarithm of concentration. Y is the response). The IC50 generated by this procedure is the concentration of the drug that produces a percentage control fluorescence value midway between the saturation, and zero-effect plateaus. Three independent assays are usually performed and the mean IC50 is reported.

WM266.4 melanoma cells = experiment: SRB Cell Proliferation Assay (SRB GI50); type: cell-based; conditions: Homo sapiens, WM 266-4, 144 h, 6 days growth
Method: Biological Methods—SRB Cell Proliferation Assay (SRB GI50)
Cultures of WM266.4 melanoma cells are routinely cultured in DMEM/10% foetal bovine serum, at 37° C., in 5% CO2 water saturated atmosphere. Cultures are maintained in exponential growth phase by sub-culturing before having become confluent (3-5 day intervals). Single cell suspensions are prepared by harvesting an 80 cm^2 tissue culture flask with 5 mL commercial trypsin EDTA. After 5 minutes, the detached cells are mixed with 5 mL fully complemented culture medium and centrifugally pelleted (1000 rpm for 7 minutes). After aspirating the supernatant, the cell pellet is re-suspended in 10 mL fresh medium and the cells fully disaggregated by drawing the whole volume up/down 5 times through a 19-gauge needle. The concentration of the cells is determined using a haemocytometer (1/10 dilution). A suitable volume to give at least a 2-fold excess for the number of tests being conducted, typically 100-200 mL, is prepared by diluting the cell suspension to 10,000/mL, and 100 μL/well dispensed into 96 well plates using a programmable 8-channel peristaltic pump, giving 1000 cells/well, leaving column 12 blank. The plates are returned to the incubator for 24 hours to allow the cells to re-attach.
The compounds being tested are prepared at 20 mM in dimethylsulphoxide. Aliquots (200 μL) are diluted into 20 mL culture medium giving 200 μM, and 10 serial dilutions of 3× performed by transferring 5 mL to 10 mL. Aliquots (100 μL) of each dilution are added to the wells, using an 8-channel pipettor, thus performing a final further 2× dilution, and giving doses ranging from 100 μM to 0.005 μM. Column 11 receives plain culture medium only. Each compound is tested in quadruplicate, each replicate being the average of four wells, and two plates per compound.
After a further 6 days growth, the plates are emptied, and the cells are fixed in 10% trichloroacteic acid for 10 minutes on ice. After thorough rinsing in running tap water, the plates are dried, and stained by adding 50 μL of a solution of 0.1% sulphorhodamine-B in 1% acetic acid, for 10 minutes at room temperature. The stain is poured out and the plates thoroughly rinsed under a stream of 1% acetic acid, thus removing unbound stain, and dried. The bound stain is taken into solution by addition of 150 μL Tris buffer pH 8, followed by 10 minutes on a plate-shaker (approximately 500 rpm). The absorbance at 540 nm in each well (being proportional to the number of cells present) is determined using a plate reader.
After averaging the results in rows A-D and E-H, the blank value (row 12) is subtracted, and results expressed as percentage of the untreated value (row 11). […] The GI50 generated by this procedure is the concentration of the drug that produces a percentage control A540 midway between the saturation, and zero-effect plateaus.

pERK = experiment: Cell Based Phospho-ERK Assay; conditions: 6 h, cells incubated with test compound for 6 hours
Method: Biological Methods—Cell Based Phosho-ERK Assay
Compounds were assessed using a cell-based assay which was performed according to the following protocol.
Plate out 16,000 cells/well in 99 μL medium in a 96-well plate.
1. Add 1 μL inhibitor to the cells […].
2. Incubate the cells with test compound for 6 hours at 37° C.
3. Aspirate off the solution from all of the wells.
4. Fixate the cells with 100 μL 4% formaldehyde/0.25% Triton X-100 PBS per well.
5. Incubate the plate for 1 hour at 4° C.
6. Aspirate off the fixing solution and add 300 μL TBS per well.
7. Leave the plate overnight at 4° C.
1. Wash the plate 2× with 200 μL PBS per well.
2. Block with 100 μL 5% dried milk in TBS.
3. Incubate the plate for 20 minutes at 37° C.
4. Wash the plate 2× with 0.1% tween/H2O.
5. Add 50 μL of 3 μg/mL primary antibody pERK (Sigma M8159), diluted in 5% milk powder/TBS, to each well.
6. Incubate the plate for 2 hours at 37° C.
7. Wash the plate 3× with 0.1% tween/H2O.
8. Add 50 μL of 0.45 μg/mL secondary Europium-labelled anti-mouse antibody (Perkin Elmer) to each well.
9. Incubate the plate for 1 hour at 37° C.
10. Wash the plate 3× with 0.1% tween/H2O.
11. Add 100 μL enhancement solution (Perkin Elmer) to each well.
12. Leave the plate for approximately 10 minutes at room temperature before gently shaking the plate.
13. Read Europium Time Resolved Fluorescence in Victor2.
14. Wash the plate 2× with 0.1% tween/H2O.
15. Measure the protein concentration with BCA (Sigma) by adding 200 μL of solution per well.
16. Incubate the plate for 30 minutes at 37° C.
17. Read absorbance levels at 570 nm in a plate reader.
Note that Europium counts are normalised for protein levels by dividing counts by absorbance.
as §1, with “(no cells)” for “(Empty Vector)”

Chain of B-RAF (P15056 whole entry V600E): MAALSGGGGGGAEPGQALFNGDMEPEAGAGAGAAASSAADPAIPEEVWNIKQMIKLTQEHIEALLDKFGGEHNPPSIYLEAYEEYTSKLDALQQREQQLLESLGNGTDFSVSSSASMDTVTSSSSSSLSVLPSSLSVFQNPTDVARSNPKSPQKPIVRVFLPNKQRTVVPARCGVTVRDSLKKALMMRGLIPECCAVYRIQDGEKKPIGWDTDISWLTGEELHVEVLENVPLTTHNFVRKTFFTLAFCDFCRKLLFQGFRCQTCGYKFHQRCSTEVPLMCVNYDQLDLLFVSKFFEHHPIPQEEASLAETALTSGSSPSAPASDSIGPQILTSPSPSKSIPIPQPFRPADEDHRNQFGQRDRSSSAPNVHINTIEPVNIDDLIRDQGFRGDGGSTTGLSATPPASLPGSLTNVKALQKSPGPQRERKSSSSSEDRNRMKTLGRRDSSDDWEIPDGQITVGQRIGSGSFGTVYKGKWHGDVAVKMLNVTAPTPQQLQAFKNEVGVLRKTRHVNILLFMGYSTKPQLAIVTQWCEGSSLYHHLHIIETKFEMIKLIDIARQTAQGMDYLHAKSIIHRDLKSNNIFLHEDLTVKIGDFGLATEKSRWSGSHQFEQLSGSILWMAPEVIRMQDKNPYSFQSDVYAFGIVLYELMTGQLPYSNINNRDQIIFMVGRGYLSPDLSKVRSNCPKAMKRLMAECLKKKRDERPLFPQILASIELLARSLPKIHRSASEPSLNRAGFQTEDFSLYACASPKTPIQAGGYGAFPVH

O=C(Nc1cc(C(F)(F)F)ccc1F)Nc1ccc(Oc2ccnc3[nH]c(=O)[nH]c23)c2ncccc12 [AA-001, 4-[(5-Amino-quinolinyl-8-oxy)carbonylamino-(2-fluoro-5-trifloromethylphenyl)]-pyridin-5,6-imidazolone]
IC50 (B-RAF): ≤ 1 µM
GI50 (WM266.4 melanoma cells): ≤ 10 µM

O=C(Nc1ccc(Cl)c(C(F)(F)F)c1)Nc1ccc(Oc2ccnc3[nH]c(=O)[nH]c23)c2ncccc12 [AA-002, 4-[(8-Oxy-quinolinyl-5-amino)carbonylamino-(3-trifluoromethyl-4-chloro-phenyl)]-pyridin-5,6-imidazolone]
IC50 (B-RAF): ≤ 1 µM

CC(C)(C)c1cc(NC(=O)Nc2ccc(Oc3ccnc4[nH]c(=O)[nH]c34)c3cccnc23)n(-c2ccccc2)n1 [AA-005, 4-[(5-Oxy-quinolinyl-8-amino)carbonyl-amino-(1-N-phenyl-3-t-butyl-pyrazol-5-yl)]-pyridin-5,6-imidazolone]
IC50 (B-RAF): ≤ 1 µM
GI50 (WM266.4 melanoma cells): ≤ 10 µM
IC50 (pERK): ≤ 10 µM

CC(C)(C)c1cc(NC(=O)Nc2ccc(Oc3ccnc4[nH]c(=O)[nH]c34)c3ncccc23)n(-c2ccccc2)n1 [AA-006, 4-[(8-Oxy-quinolinyl-5-amino)carbonyl-amino-(1-N-phenyl-3-t-butyl-pyrazol-5-yl)]-pyridin-5,6-imidazolone]
GI50 (WM266.4 melanoma cells): ≤ 10 µM
IC50 (pERK): ≤ 10 µM

O=C(Nc1ccc(Cl)c(C(F)(F)F)c1)Nc1ccc(Oc2ccnc3[nH]c(=O)[nH]c23)c2cccnc12 [AA-007, 4-[(5-Oxy-quinolinyl-8-amino)carbonylamino-(3-trifluoromethyl-4-chloro-phenyl)]-pyridin-5,6-imidazolone]
IC50 (B-RAF): ≤ 1 µM
GI50 (WM266.4 melanoma cells): ≤ 10 µM
IC50 (pERK): ≤ 10 µM

O=C(Nc1cccc(C(F)(F)F)c1)Nc1ccc(Oc2ccnc3[nH]c(=O)[nH]c23)c2cccnc12 [AA-008, 4-[(5-Oxy-quinolinyl-8-amino)carbonylamino-(3-trifluoromethyl-phenyl)]-pyridin-5,6-imidazolone]
IC50 (B-RAF): ≤ 1 µM
GI50 (WM266.4 melanoma cells): ≤ 10 µM
IC50 (pERK): ≤ 10 µM

O=C(Nc1cccc(SC(F)(F)F)c1)Nc1ccc(Oc2ccnc3[nH]c(=O)[nH]c23)c2cccnc12 [AA-009, 4-[(5-Oxy-quinolinyl-8-amino)carbonylamino-(3-trifluoromethylthio-phenyl)]-pyridin-5,6-imidazolone]
IC50 (B-RAF): ≤ 1 µM
GI50 (WM266.4 melanoma cells): ≤ 10 µM
IC50 (pERK): ≤ 10 µM

Cc1ccc(-n2nc(C(C)(C)C)cc2NC(=O)Nc2ccc(Oc3ccnc4[nH]c(=O)n(C)c34)c3cccnc23)cc1 [AA-011, 4-[(5-Oxy-quinolinyl-8-amino)carbonyl-amino-(1-N-p-tolyl-3-t-butyl-pyrazol-5-yl)]-pyridin-5-N-methyl,6-imidazolone]
GI50 (WM266.4 melanoma cells): ≤ 10 µM
IC50 (pERK): ≤ 10 µM

Cn1c(=O)[nH]c2nccc(Oc3ccc(NC(=O)Nc4cc(C(C)(C)C)nn4-c4ccccc4)c4ncccc34)c21 [AA-012, 4-[(5-Oxy-quinolinyl-8-amino)carbonyl-amino-(1-N-phenyl-3-t-butyl-pyrazol-5-yl)]-pyridin-5-N-methyl,6-imidazolone]
IC50 (B-RAF): ≤ 1 µM and 1 µM

Cn1c(=O)[nH]c2c(Oc3ccc(NC(=O)Nc4cc(C(F)(F)F)ccc4F)c4ncccc34)ccnc21 [AA-013, 5-[(8-Amino-quinolinyl-5-oxy)carbonylamino-3-(2-fluoro-5-trifluoromethyl-phenyl)]-Pyridin-[2,3]-N-methylimidazol-2-one]
IC50 (B-RAF): ≤ 1 µM
IC50 (pERK): ≤ 10 µM

Cc1ccc(-n2nc(C(C)(C)C)cc2NC(=O)Nc2ccc(Oc3ccnc4c3[nH]c(=O)n4C)c3cccnc23)cc1 [AA-015]
GI50 (WM266.4 melanoma cells): ≤ 10 µM
IC50 (pERK): ≤ 10 µM

Cn1c(=O)[nH]c2c(Oc3ccc(NC(=O)Nc4cc(C(C)(C)C)nn4-c4ccccc4)c4ncccc34)ccnc21 [AA-016]
GI50 (WM266.4 melanoma cells): ≤ 10 µM
IC50 (pERK): ≤ 10 µM

Cc1ccc(-n2nc(C(C)(C)C)cc2NC(=O)Nc2ccc(Oc3ccnc4[nH]c(=O)c(C)nc34)c3cccnc23)cc1 [BB-002, 5-[(8-Amino-quinolinyl-5-oxy)carbonylamino-5-(1-N-p-tolyl-3-t-butyl-imidazolyl)]-pyridin-[2,3]-3-methylpyrazin-2-one]
GI50 (WM266.4 melanoma cells): ≤ 10 µM
IC50 (pERK): ≤ 10 µM

CC(C)(C)c1cc(NC(=O)Nc2ccc(Oc3ccnc4ncc(=O)[nH]c34)c3cccnc23)n(-c2ccccc2)n1 [BB-010]
GI50 (WM266.4 melanoma cells): ≤ 10 µM
IC50 (pERK): ≤ 10 µM
